In PMC5974162, “Characterization of Ferredoxin-Dependent Biliverdin Reductase PCYA1 Reveals the Dual Function in Retrograde Bilin Biosynthesis and Interaction With Light-Dependent Protochlorophyllide Oxidoreductase LPOR in Chlamydomonas reinhardtii” (Frontiers in Plant Science, 2018):

Biological target: T1, DtenPHY1 (Dolichomastix tenuilepis, UniProt A0A097CKJ3)
T1 construct: gene PHY; Twin-Strep-tag kept; expressed in Chlamydomonas CC400 cytosol, also in E. coli LMG194/pPL-PCB as control
Experiment: zinc-dependent fluorescence of SDS-PAGE blot
Format: binding
Conditions: covalent; in vitro assembly with added PCB, TES pH 8.0, room temperature, ~2 h, dark; also without added PCB

T1 sequence (A0A097CKJ3 entry or part of it): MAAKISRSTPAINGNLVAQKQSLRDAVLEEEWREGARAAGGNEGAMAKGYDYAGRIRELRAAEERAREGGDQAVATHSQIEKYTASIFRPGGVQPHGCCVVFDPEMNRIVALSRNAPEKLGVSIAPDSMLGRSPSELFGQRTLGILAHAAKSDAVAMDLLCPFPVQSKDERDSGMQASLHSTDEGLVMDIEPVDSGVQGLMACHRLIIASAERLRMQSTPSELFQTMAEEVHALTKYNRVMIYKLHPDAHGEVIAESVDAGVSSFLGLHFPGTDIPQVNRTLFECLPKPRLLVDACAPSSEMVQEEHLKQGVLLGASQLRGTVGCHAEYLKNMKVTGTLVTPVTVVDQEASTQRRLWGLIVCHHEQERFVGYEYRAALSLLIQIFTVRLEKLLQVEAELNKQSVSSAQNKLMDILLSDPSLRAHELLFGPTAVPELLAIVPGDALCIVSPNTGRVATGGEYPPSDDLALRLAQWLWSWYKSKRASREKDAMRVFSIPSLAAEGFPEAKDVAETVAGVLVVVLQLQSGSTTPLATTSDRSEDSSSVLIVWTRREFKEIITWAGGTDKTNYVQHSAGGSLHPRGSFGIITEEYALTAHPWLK

## CC=C1C(=Cc2[nH]c(C=C3N=C(C=C4NC(=O)C(CC)=C4C)C(C)=C3CCC(=O)O)c(CCC(=O)O)c2C)NC(=O)C1C (stereo not shown) [PCB, phycocyanobilin]
  zinc-dependent fluorescence of SDS-PAGE blot: DtenPHY1 purified from Chlamydomonas CC400 covalently binds phycocyanobilin (PCB)
